In publication PMC9403976, “Elucidating the path to Plasmodium prolyl-tRNA synthetase inhibitors that overcome halofuginone resistance” (Nature Communications, 2022):
Values joined by “and” are separate entries in the source; they are usually repeats but may differ in a detail not shown here. Identical values can stand only once. Like-named read-outs stand apart in the source and are kept apart here.

What was measured:
HsProRS = HsProRS (Homo sapiens, UniProt P07814); assay: TR-FRET ligand displacement assay with tracer MAT379 (CoraFluor-1-Halo and anti-His6 antibody formats); type: binding; set-up: made in house; host or cells: E. coli SoluBL-21; conditions: for TR-FRET dose-response, normalized signal (SI Fig 11): individual replicates
PfcProRS = molecular target: T1, PfcProRS (Plasmodium falciparum, UniProt Q8I5R7); type: binding; conditions: single replicates
T1 construct: made in house; host or cells: E. coli SoluBL-21

P. falciparum Dd2-2D4 = assay: P. falciparum asexual blood stage (ABS) growth assay, SYBR Green, 72 h, wild-type parasites; type: cell-based, Plasmodium falciparum

T1 sequence (Q8I5R7 249-746): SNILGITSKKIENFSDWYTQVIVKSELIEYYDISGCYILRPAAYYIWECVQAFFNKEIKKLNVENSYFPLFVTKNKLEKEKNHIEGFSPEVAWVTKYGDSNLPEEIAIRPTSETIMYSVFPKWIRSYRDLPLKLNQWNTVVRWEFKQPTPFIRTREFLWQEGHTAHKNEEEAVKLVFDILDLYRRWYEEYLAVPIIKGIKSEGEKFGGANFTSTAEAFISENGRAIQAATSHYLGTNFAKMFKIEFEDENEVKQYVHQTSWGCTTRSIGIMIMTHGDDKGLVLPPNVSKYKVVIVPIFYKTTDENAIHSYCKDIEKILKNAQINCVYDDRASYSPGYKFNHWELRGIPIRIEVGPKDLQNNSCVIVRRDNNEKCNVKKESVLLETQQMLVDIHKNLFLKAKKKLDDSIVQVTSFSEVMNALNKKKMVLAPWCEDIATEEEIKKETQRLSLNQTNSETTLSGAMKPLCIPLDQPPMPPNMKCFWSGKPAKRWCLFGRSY
Sequence of HsProRS (P07814 996-1512): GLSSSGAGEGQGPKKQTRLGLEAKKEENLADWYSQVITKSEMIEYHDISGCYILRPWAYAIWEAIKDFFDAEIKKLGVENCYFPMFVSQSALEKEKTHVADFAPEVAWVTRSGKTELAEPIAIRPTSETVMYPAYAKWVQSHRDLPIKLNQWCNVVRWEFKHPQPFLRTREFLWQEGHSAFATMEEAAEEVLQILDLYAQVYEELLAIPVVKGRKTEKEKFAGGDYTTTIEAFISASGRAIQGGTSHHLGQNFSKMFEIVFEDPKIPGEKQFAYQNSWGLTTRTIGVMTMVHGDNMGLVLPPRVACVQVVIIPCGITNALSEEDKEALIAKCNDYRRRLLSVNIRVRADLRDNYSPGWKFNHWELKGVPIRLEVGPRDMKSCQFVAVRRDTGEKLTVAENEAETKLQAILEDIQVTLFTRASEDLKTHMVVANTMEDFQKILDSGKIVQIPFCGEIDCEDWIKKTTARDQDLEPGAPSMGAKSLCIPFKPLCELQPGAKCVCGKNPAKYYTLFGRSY

O=C(O)CCCC(=O)Nc1nccnc1C(=O)NC1Cc2ccccc2C1 [compound 22]
IC50 (HsProRS): > 10 µM | HsProRS % signal at 10 μM, + 100 μM proline (HsProRS; + 100 μM proline, 10 μM): 79.2% | normalized TR-FRET ligand displacement signal, dose-response replicates (SI Fig 6) (HsProRS; Log[inhibitor] (M) -5.000): 6.88E-01 and 7.76E-01 and 7.44E-01 | TR-FRET dose-response, normalized signal (SI Fig 11) (HsProRS; Log[inhibitor] (M) -5.000): 7.43E-01 and 6.59E-01 and 7.38E-01 | normalized TR-FRET ligand displacement signal, dose-response replicates (SI Fig 6) (HsProRS; Log[inhibitor] (M) -5.301): 8.82E-01 (2×) and 7.80E-01 | TR-FRET dose-response, normalized signal (SI Fig 11) (HsProRS; Log[inhibitor] (M) -5.301): 8.33E-01 and 8.41E-01 and 8.52E-01 | normalized TR-FRET ligand displacement signal, dose-response replicates (SI Fig 6) (HsProRS; Log[inhibitor] (M) -5.601): 8.80E-01 and 9.45E-01 and 8.65E-01 | TR-FRET dose-response, normalized signal (SI Fig 11) (HsProRS; Log[inhibitor] (M) -5.601): 9.39E-01 and 8.79E-01 and 9.13E-01 | normalized TR-FRET ligand displacement signal, dose-response replicates (SI Fig 6) (HsProRS; Log[inhibitor] (M) -5.904): 1.02E+00 and 1.06E+00 and 9.13E-01 | TR-FRET dose-response, normalized signal (SI Fig 11) (HsProRS; Log[inhibitor] (M) -5.904): 9.47E-01 and 9.57E-01 and 9.01E-01 | normalized TR-FRET ligand displacement signal, dose-response replicates (SI Fig 6) (HsProRS; Log[inhibitor] (M) -6.208): 1.04E+00 and 1.02E+00 and 9.07E-01 | TR-FRET dose-response, normalized signal (SI Fig 11) (HsProRS; Log[inhibitor] (M) -6.208): 1.02E+00 and 9.48E-01 and 9.47E-01 | normalized TR-FRET ligand displacement signal, dose-response replicates (SI Fig 6) (HsProRS; Log[inhibitor] (M) -6.509): 8.91E-01 and 9.55E-01 and 1.01E+00 | TR-FRET dose-response, normalized signal (SI Fig 11) (HsProRS; Log[inhibitor] (M) -6.509): 9.53E-01 and 9.49E-01 and 9.29E-01 | normalized TR-FRET ligand displacement signal, dose-response replicates (SI Fig 6) (HsProRS; Log[inhibitor] (M) -6.796): 1.03E+00 and 1.02E+00 and 9.73E-01 | TR-FRET dose-response, normalized signal (SI Fig 11) (HsProRS; Log[inhibitor] (M) -6.796): 9.39E-01 and 9.96E-01 and 9.21E-01 | normalized TR-FRET ligand displacement signal, dose-response replicates (SI Fig 6) (HsProRS; Log[inhibitor] (M) -7.108): 1.09E+00 and 9.83E-01 and 1.08E+00 | TR-FRET dose-response, normalized signal (SI Fig 11) (HsProRS; Log[inhibitor] (M) -7.108): 9.39E-01 and 9.94E-01 and 9.05E-01 | normalized TR-FRET ligand displacement signal, dose-response replicates (SI Fig 6) (HsProRS; Log[inhibitor] (M) -7.409): 9.62E-01 and 1.05E+00 and 9.54E-01 | TR-FRET dose-response, normalized signal (SI Fig 11) (HsProRS; Log[inhibitor] (M) -7.409): 9.56E-01 and 9.55E-01 and 9.01E-01 | normalized TR-FRET ligand displacement signal, dose-response replicates (SI Fig 6) (HsProRS; Log[inhibitor] (M) -7.710): 9.45E-01 and 1.01E+00 and 9.79E-01 | TR-FRET dose-response, normalized signal (SI Fig 11) (HsProRS; Log[inhibitor] (M) -7.710): 9.86E-01 and 9.70E-01 and 9.64E-01 | normalized TR-FRET ligand displacement signal, dose-response replicates (SI Fig 6) (HsProRS; Log[inhibitor] (M) -8.000): 1.07E+00 and 1.06E+00 and 9.51E-01 | TR-FRET dose-response, normalized signal (SI Fig 11) (HsProRS; Log[inhibitor] (M) -8.000): 9.84E-01 and 9.81E-01 and 9.67E-01 | normalized TR-FRET ligand displacement signal, dose-response replicates (SI Fig 6) (HsProRS; Log[inhibitor] (M) -8.301): 9.49E-01 and 8.91E-01 and 8.92E-01 | TR-FRET dose-response, normalized signal (SI Fig 11) (HsProRS; Log[inhibitor] (M) -8.301): 9.40E-01 and 1.01E+00 and 9.29E-01 | normalized TR-FRET ligand displacement signal, dose-response replicates (SI Fig 6) (HsProRS; Log[inhibitor] (M) -8.602): 9.06E-01 and 1.02E+00 and 1.07E+00 | TR-FRET dose-response, normalized signal (SI Fig 11) (HsProRS; Log[inhibitor] (M) -8.602): 9.70E-01 and 9.81E-01 and 9.77E-01 | normalized TR-FRET ligand displacement signal, dose-response replicates (SI Fig 6) (HsProRS; Log[inhibitor] (M) -9.000): 1.02E+00 and 8.38E-01 and 9.71E-01 | TR-FRET dose-response, normalized signal (SI Fig 11) (HsProRS; Log[inhibitor] (M) -9.000): 1.01E+00 and 9.79E-01 and 9.47E-01 | normalized TR-FRET ligand displacement signal, dose-response replicates (SI Fig 6) (HsProRS; Log[inhibitor] (M) -9.301): 9.40E-01 and 9.94E-01 and 9.82E-01 | TR-FRET dose-response, normalized signal (SI Fig 11) (HsProRS; Log[inhibitor] (M) -9.301): 9.53E-01 and 9.63E-01 and 8.99E-01 | HsProRS % signal at 10 μM (HsProRS; no added proline/ATP (-), 10 μM): 71.3% | IC50 (HsProRS; read-out: HsProRS IC50 + 100 μM proline, + 100 μM proline): > 10 µM | dose-response signal (normalized), SI Fig 8 (PfcProRS; Log[inhibitor] (M) -5.000): 9.06E-01 and 9.64E-01 and 8.26E-01 | dose-response signal (normalized), SI Fig 8 (PfcProRS; Log[inhibitor] (M) -5.301): 1.01E+00 (2×) and 9.72E-01 | dose-response signal (normalized), SI Fig 8 (PfcProRS; Log[inhibitor] (M) -5.601): 9.26E-01 and 1.02E+00 and 9.22E-01 | dose-response signal (normalized), SI Fig 8 (PfcProRS; Log[inhibitor] (M) -5.904): 9.72E-01 and 1.05E+00 and 1.09E+00 | dose-response signal (normalized), SI Fig 8 (PfcProRS; Log[inhibitor] (M) -6.208): 1.07E+00 (2×) and 9.87E-01 | dose-response signal (normalized), SI Fig 8 (PfcProRS; Log[inhibitor] (M) -6.509): 1.07E+00 and 1.14E+00 and 1.02E+00 | dose-response signal (normalized), SI Fig 8 (PfcProRS; Log[inhibitor] (M) -6.796): 9.89E-01 and 1.07E+00 and 9.33E-01 | dose-response signal (normalized), SI Fig 8 (PfcProRS; Log[inhibitor] (M) -7.108): 1.06E+00 and 1.00E+00 and 1.02E+00 | dose-response signal (normalized), SI Fig 8 (PfcProRS; Log[inhibitor] (M) -7.409): 9.62E-01 and 1.08E+00 and 9.97E-01 | dose-response signal (normalized), SI Fig 8 (PfcProRS; Log[inhibitor] (M) -7.710): 1.02E+00 and 9.90E-01 and 1.13E+00 | dose-response signal (normalized), SI Fig 8 (PfcProRS; Log[inhibitor] (M) -8.000): 1.05E+00 (2×) and 1.10E+00 | dose-response signal (normalized), SI Fig 8 (PfcProRS; Log[inhibitor] (M) -8.301): 1.05E+00 and 1.11E+00 and 1.20E+00 | dose-response signal (normalized), SI Fig 8 (PfcProRS; Log[inhibitor] (M) -8.602): 9.67E-01 and 1.09E+00 and 1.08E+00 | dose-response signal (normalized), SI Fig 8 (PfcProRS; Log[inhibitor] (M) -9.000): 9.27E-01 and 1.05E+00 and 1.07E+00 | dose-response signal (normalized), SI Fig 8 (PfcProRS; Log[inhibitor] (M) -9.301): 1.08E+00 and 1.15E+00 and 9.88E-01 | dose-response value per replicate (SI Fig 2g) (P. falciparum Dd2-2D4; Log[inhibitor] (M) -7.408): 111 | EC50 (P. falciparum Dd2-2D4; Plasmodium falciparum, DD2, SI Fig 16b, values on -log scale, read-out: ABS - Dd2-2D4 (converted)): 12.3 µM
